# Tested on: asthmatic airway constriction in acute asthma mouse model
# Assay: Airway resistance (Rrs, FlexiVent) in OVA-induced, methacholine-challenged asthma mice
# Assay type: in vivo, C57BL/6 mice
# Procedure: Asthma mice were established as reported previously. Briefly, six to eight-week-old female C57BL/6 mice were carried out by intraperitoneal injection of 100 μg ovalbumin and 4 mg Imject Alum (ThermoFisher Scientific) in total volume of 0.2 mL on days 0 and 14. These mice were then challenged with 1.5%-2% aerosolized ovalbumin for 1 h on days 24, 25 and 26. The efficacy of drugs was evaluated by measuring airway resistance in these mice 24 h after the last challenge.
# (§1) The airway resistance was measured through an invasive method as described in previous reports. In brief, the mice were anesthetized with 240 mg/kg Avertin and the trachea was cannulated with an 18-gauge metal needle. Mechanical ventilation (FlexiVent; SCIREQ Inc., Montreal, Canada) was applied at a frequency of 150 breaths per minute, a tidal volume of 10 ml/kg, and positive end-expiratory pressure of 2.5 cm H2O. Prior to methacholine challenge, deep inflation was applied followed by administration of aerosolized PBS to obtain stabilization of airway resistance (Rrs, cmH2O·s/mL). The Rrs after PBS was considered to be the baseline. Then mice were challenged with sequential concentrations of methacholine with a dose of 2.0, 4.0, 8.0, 16, 32 and 64 mg/mL by an ultrasonic nebulizer until reaching bronchoconstrictive phase that was four to five folds greater than baseline. Three minutes after the last dose of methacholine inhalation, the reagents were delivered by the same ultrasonic nebulizer. The Rrs measurements were performed every 30 s throughout the experiments. The negative control for these studies was PBS, because all the solvents for reagents used here were PBS. As a positive control, albuterol (3 μg; Sigma), the most widely used β-agonist as an effective bronchodilator for asthma therapy, was used.
# as §1, with “Acute asthma model mice were established as reported previously. Briefly, six to eight-week-old female C57BL/6 mice were carried out by intraperitoneal injection of 100 μg ovalbumin and 4 mg Imject Alum (ThermoFisher Scientific) in total volume of 0.2 mL on days 0 and 14. These mice were then challenged with 1.5%-2% aerosolized ovalbumin for 1 h on days 24, 25 and 26. The efficacy of drugs by measuring airway resistance in these mice 24 h was evaluated after the last challenge. The airway” for “The airway”
smiles,measurement,setting,value
C[C@@H]1O[C@@H](O[C@H]2[C@H](O[C@H]3CC[C@@]4(C)C(CC[C@]5(C)C4C=CC4=C6[C@]7(CC[C@](C)(OC7=O)[C@@]6(C)O)CC[C@]45C)C3(C)C)OC[C@H](O)[C@@H]2O[C@@H]2O[C@H](CO)[C@@H](O)[C@H](O)[C@H]2O)[C@H](O)[C@H](O)[C@H]1O (some centres unmarked) [Kudinoside D],"reduction of airway resistance, 0.03 μg",0.03 μg inhaled,slight reduction
same,"airway resistance reduced to, at 1 minute after inhalation, 0.03 μg","0.03 μg inhaled, 1 minute",69.65±5.87%
same,"reduction of airway resistance, 0.3 μg",0.3 μg inhaled,significant reduction of airway resistance
same,"airway resistance reduced to, at 1 minute after inhalation, 0.3 μg","0.3 μg inhaled, 1 minute",67.79±6.77%
same,"reduction of airway resistance at 3 minutes after inhalation compared with 3 μg albuterol, 0.3 μg","0.3 μg inhaled, 3 minutes",more reduction of airway resistance than that of 3 μg of albuterol
same,"reduction of airway resistance, 3 μg",3 μg inhaled,significant reduction of airway resistance
same,"airway resistance reduced to, at 1 minute after inhalation, 3 μg","3 μg inhaled, 1 minute",45.81±6.87%
same,"reduction of airway resistance at 3 minutes after inhalation compared with 3 μg albuterol, 3 μg","3 μg inhaled, 3 minutes",more reduction of airway resistance than that of 3 μg of albuterol

# Source: patent US10786521B2, “Methods and compositions for treatment of COPD diseases” (Shanghai KE Pharmaceutical Co., LTD, priority 2014, dated 2020)
